We go through four molecules from ChEMBL document CHEMBL1201862, “PubChem BioAssay data set” (2004).

Test systems include HT-29; HCT-15; SN12C; UO-31; MOLT-4; HL-60; MCF7; UACC-257; COLO 205; OVCAR-5; KM-20L2; OVCAR-3; SNB-78; SNB-75; Malme-3M; OVCAR-4; XF498; SF-539; HOP-62; HCT-116.
What all share (test): NCI anticancer screen, dose series, 48 h

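Where inhibition never reached the appropriate level, the endpoint shown equals the highest concentration tested. Otherwise, values were interpolated linearly from a five-concentration, 48-hour dose response in 96-well plates. Here, GI50 denotes the concentration required for 50% inhibition of growth.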 Calls of active or inactive are those of the source. Cut-off read from the data, not from the text of the source: active = GI50 up to about 1.1 µM and inactive = higher.

Turning to `CC1NC(=O)C(C)C(c2ccccc2)N(N=O)C1c1ccccc1` (stereo not given), the GI50 with HT-29 is 29.2 µM (inactive); in the test on HCT-15, 55200 nM; in the test on SN12C it was > 100 µM (inactive); in the test on UO-31, > 92.5 µM (inactive); in the test on MOLT-4, 36.8 µM (inactive); in the test with HL-60, 22.9 µM (inactive). Also, the GI50 in the test on MCF7 is 50 µM (inactive); with UACC-257, > 100 µM (inactive); in the test on COLO 205, > 63.4 µM (inactive); in the test with OVCAR-5 it was > 100 µM (inactive); with KM-20L2 it was > 100 µM (inactive); in the test on OVCAR-3 it was > 52.5 µM (inactive). Moreover, the GI50 in the test with SNB-78 was > 100 µM (inactive); with SNB-75, > 38.3 µM (inactive); with Malme-3M, > 100 µM (inactive); in the test with OVCAR-4 it was 31.3 µM (inactive); with XF498 it was 29.9 µM (inactive); with SF-539, > 100 µM (inactive). For the same molecule, the GI50 was > 87.9 µM (inactive) in the test on HOP-62 and > 59 µM (inactive) in the test on HCT-116.

Take `ClCc1ccc2ccc3ccc(CCl)nc3c2n1`: the GI50 in the test with HT-29 is 2.17 µM (inactive); with HCT-15 it was 1780 nM; with SN12C, 2.36 µM (inactive); in the test with UO-31, 1.69 µM (inactive); in the test with MOLT-4, 1.73 µM (inactive); in the test on HL-60, 1.8 µM (inactive). Also, the GI50 was 0.955 µM (active) in the test with MCF7; 1.29 µM (inactive) in the test on UACC-257; 1.71 µM (inactive) in the test with COLO 205; 2.85 µM (inactive) with OVCAR-5; 4.1 µM (inactive) with KM-20L2; 1.94 µM (inactive) in the test on OVCAR-3. In addition, the GI50 is 2.88 µM (inactive) in the test with SNB-78; 1.95 µM (inactive) with SNB-75; 1.92 µM (inactive) in the test with Malme-3M; 5.65 µM (inactive) with OVCAR-4; 1.65 µM (inactive) with XF498; 2.25 µM (inactive) in the test on SF-539. Besides, the GI50 in the test with HOP-62 was 4.29 µM (inactive); in the test with HCT-116, 1.69 µM (inactive).

As to `C=C1C(=O)OC2CC1CCC1(C)OC1CCC(C)=CCCC2(C)O` (stereo not given), the GI50 in the test on HT-29 is 4.06 µM (inactive); in the test with HCT-15 it was 1850 nM; in the test on SN12C, 5.08 µM (inactive); with UO-31 it was 9.04 µM (inactive); in the test on MOLT-4 it was 1.87 µM (inactive); in the test on HL-60, 0.927 µM (active). Also, the GI50 is 3.82 µM (inactive) with MCF7; 4.78 µM (inactive) in the test with UACC-257; 1.89 µM (inactive) in the test on COLO 205; 10 µM (inactive) with OVCAR-5; 2.82 µM (inactive) in the test on KM-20L2; 3.33 µM (inactive) with OVCAR-3. Further, the GI50 in the test on SNB-78 was 7.74 µM (inactive); with SNB-75, 7.08 µM (inactive); in the test on Malme-3M, 3.76 µM (inactive); in the test on OVCAR-4, 4.78 µM (inactive); with XF498 it was 3.73 µM (inactive); in the test on SF-539 it was 4.62 µM (inactive). In addition, the results for the GI50 in the test with HOP-62 and in the test on HCT-116 were 10.3 µM (inactive) and 2.72 µM (inactive), respectively.

Take `COc1cc2c(ccc3c4cc(OC)c(OC)cc4c[n+](C)c23)cc1O` [FAGARONINE]: the GI50 in the test on HT-29 was > 73.3 µM (inactive); with HCT-15, more than 73300 nM; with SN12C, 0.726 µM (active); in the test with UO-31, > 72.8 µM (inactive); in the test with MOLT-4 it was 4.28 µM (inactive); in the test with HL-60 it was 48 µM (inactive). In addition, the GI50 in the test with MCF7 is 4.15 µM (inactive); in the test with UACC-257, > 67 µM (inactive); in the test with COLO 205, 15 µM (inactive); in the test with OVCAR-5 it was 24 µM (inactive); with KM-20L2, > 75 µM (inactive); in the test on OVCAR-3 it was 4.72 µM (inactive). For the same molecule, the GI50 was 26.1 µM (inactive) in the test on SNB-78; 2.9 µM (inactive) in the test with SNB-75; 15.6 µM (inactive) in the test with Malme-3M; 12.2 µM (inactive) in the test on OVCAR-4; 4.54 µM (inactive) in the test on XF498; 2.88 µM (inactive) in the test on SF-539. The GI50 is 2.3 µM (inactive) in the test on HOP-62 and 4.24 µM (inactive) with HCT-116.
